The target in the assay is CFTR-mediated chloride transport (Homo sapiens, UniProt P13569). Nature of the assay: Corrector Assay A - membrane potential dye assay (enteroid cells). The conditions noted are these: for Corrector Assay A % activity: % of chloride transport of triple combination control (1 μM (14S)-dispiro macrocycle + 3 μM tezacaftor + 300 nM ivacaftor); for EC50: read-out: Corrector Assay A EC50, human intestinal enteroid cells, 18-24 h incubation, acute 10 μM forskolin + 300 nM ivacaftor.

`CC1(C)CC(C2CC[C@@H]3CN(c4nc(C(C)(C)C)ccc4C(=O)NS(=O)(=O)c4cccc(n4)N2)C(C)(C)C3)CC(C)(C)O1` (single isomer, unassigned) [Compound 43]: the “Corrector Assay A % activity” value is reported as “+ (+ is <30%)”.
As for `CN(C)CC(=O)N1CCC([C@@H]2CC[C@@H]3CN(c4nc(C(C)(C)C)ccc4C(=O)NS(=O)(=O)c4cccc(n4)N2)C(C)(C)C3)CC1` (single isomer, unassigned) [Compound 237], the “Corrector Assay A % activity” value is “++ (++ is 30-60%)” and the EC50 (in general, the concentration giving half of the maximal effect) fell in the range of 1000 to 3000 nM.
As to `CC1(C)C[C@@H]2CC[C@H](c3ccccn3)Nc3cccc(n3)S(=O)(=O)NC(=O)c3ccc(C4CC4)nc3N1C2` [Compound 349], the “Corrector Assay A % activity” value is given as “+++ (+++ is >60%)” and the concentration for a half-maximal effect (EC50) is less than 1000 nM.
For `CC(C)(C)COc1ccn(-c2ccc3c(n2)N2C[C@@H](CC[C@H](c4ccccn4)Nc4cccc(n4)S(=O)(=O)NC3=O)CC2(C)C)n1` [Compound 322] the same measures were “++ (++ is 30-60%)” and less than 1000 nM.
Take `Cc1cccc(C)c1[C@H]1CC[C@@H]2CN(c3nc(C(C)(C)C)ccc3C(=O)NS(=O)(=O)c3cccc(n3)N1)C(C)(C)C2` (single isomer, unassigned) [Compound 242]: the “Corrector Assay A % activity” value is “+ (+ is <30%)”.
On to `CC1(C)CC(C2CC[C@@H]3CN(c4nc(C(C)(C)C)ccc4C(=O)NS(=O)(=O)c4cccc(n4)N2)C(C)(C)C3)CC(C)(C)O1` (single isomer, unassigned) [Compound 42], for which the “Corrector Assay A % activity” value was “++ (++ is 30-60%)” and the EC50 was less than 1000 nM.
On the same counts, the results for `CN(C)CCNc1cccc([C@H]2CC[C@@H]3CN(c4nc(C(C)(C)C)ccc4C(=O)NS(=O)(=O)c4cccc(n4)N2)C(C)(C)C3)n1` [Compound 189] are “++ (++ is 30-60%)” and less than 1000 nM.
For `Cc1ccc2nc3c(cc2c1)C(=O)NS(=O)(=O)c1cccc(n1)N[C@H](c1cc(C(C)(C)C)ccn1)CC[C@@H]1CN3C(C)(C)C1` (single isomer, unassigned) [Compound 5] the same measures were “+++ (+++ is >60%)” and less than 1000 nM.
For `CC(C)(C)c1ccc2c(n1)N1C[C@@H](CCC(c3ccc(CN)cn3)Nc3cccc(n3)S(=O)(=O)NC2=O)CC1(C)C` (single isomer, unassigned) [Compound 197] the same measures were “++ (++ is 30-60%)” and less than 1000 nM.
As for `CC1(COc2ccn(-c3ccc4c(n3)N3C[C@@H](CC[C@H](c5ccccn5)Nc5cccc(n5)S(=O)(=O)NC4=O)CC3(C)C)n2)CC1` [Compound 321], the “Corrector Assay A % activity” value is given as “+++ (+++ is >60%)” and the EC50 is less than 1000 nM.
In the case of `CC1(C)C[C@@H]2CC[C@H](c3ccccn3)Nc3cccc(n3)S(=O)(=O)NC(=O)c3ccc(-c4cccc(F)n4)nc3N1C2` [Compound 318, (14S,17R)-8-(6-fluoropyridin-2-yl)-12,12-dimethyl-17-(pyridin-2-yl)-2λ^6-thia-3,9,11,18,23-pentaazatetracyclo[17.3.1.111,14.05,10]tetracosa-1(22),5,7,9,19(23),20-hexaene-2,2,4-trione], the “Corrector Assay A % activity” value is recorded as “+++ (+++ is >60%)” and the EC50 was less than 1000 nM.
For `CC(C)(C)c1ccc2c(n1)N1C[C@@H](CCC(c3cc(C4CCNCC4)ccn3)Nc3cccc(n3)S(=O)(=O)NC2=O)CC1(C)C` (stereo partly drawn) [Compound 124, (14S)-8-tert-butyl-12,12-dimethyl-17-[4-(piperidin-4-yl)pyridin-2-yl]-2λ^6-thia-3,9,11,18,23-pentaazatetracyclo[17.3.1.111,14.05,10]tetracosa-1(23),5(10),6,8,19,21-hexaene-2,2,4-trione], the “Corrector Assay A % activity” value was “++ (++ is 30-60%)” and the 50% effective concentration (EC50) was less than 1000 nM.
On the same counts, the results for `CC(C)(C)c1ccc2c(n1)N1C[C@@H](CC[C@@H](c3ncccc3Br)Nc3cccc(n3)S(=O)(=O)NC2=O)CC1(C)C` (single isomer, unassigned) [Compound 54] are “+ (+ is <30%)” and greater than 3000 nM.
On the same counts, the results for `Cc1ccc2cc3c(nc2c1)N1C[C@@H](CC[C@@H](c2cc(C(C)(C)C)ccn2)Nc2cccc(n2)S(=O)(=O)NC3=O)CC1(C)C` (single isomer, unassigned) [Compound 8] are “++ (++ is 30-60%)” and less than 1000 nM.
On to `CC(C)n1cc(-c2ccc3c(n2)N2C[C@@H](CC[C@@H](c4ccccn4)Nc4cccc(n4)S(=O)(=O)NC3=O)CC2(C)C)cn1` [Compound 345], for which the “Corrector Assay A % activity” value is “++ (++ is 30-60%)” and the EC50 is less than 1000 nM.
Consider `CC(C)(C)OC(=O)N1CCC2(CC1)CC(NC(=O)C1CC[C@@H]3CN(c4nc(C(C)(C)C)ccc4C(=O)NS(=O)(=O)c4cccc(n4)N1)C(C)(C)C3)C2` (single isomer, unassigned) [Compound 226], for which the “Corrector Assay A % activity” value is “+++ (+++ is >60%)” and the EC50 was less than 1000 nM.
`CC(C)(C)c1ccc2c(n1)N1C[C@@H](CC[C@@H](c3cccc(N4CCOCC4)n3)Nc3cccc(n3)S(=O)(=O)NC2=O)CC1(C)C` [Compound 190]: the “Corrector Assay A % activity” value is given as “++ (++ is 30-60%)” and the EC50 was less than 1000 nM.
As for `CC(=O)NCc1ccc(C2CC[C@@H]3CN(c4nc(C(C)(C)C)ccc4C(=O)NS(=O)(=O)c4cccc(n4)N2)C(C)(C)C3)nc1` (stereo partly drawn) [Compound 71], the “Corrector Assay A % activity” value is reported as “++ (++ is 30-60%)” and the EC50 is less than 1000 nM.
As to `COC(=O)NCc1ccnc(C2CC[C@@H]3CN(c4nc(C(C)(C)C)ccc4C(=O)NS(=O)(=O)c4cccc(n4)N2)C(C)(C)C3)c1` (single isomer, unassigned) [Compound 108], the “Corrector Assay A % activity” value is “++ (++ is 30-60%)” and the concentration giving a half-maximal response (EC50) is less than 1000 nM.
For `CC(C)(C)c1ccc([C@@H]2CC[C@@H]3CN(c4nc(C(C)(C)C)ccc4C(=O)NS(=O)(=O)c4cccc(n4)N2)C(C)(C)C3)cc1` (single isomer, unassigned) [Compound 38] the same measures were “+++ (+++ is >60%)” and less than 1000 nM.
On to `CC1(C)C[C@@H]2CC[C@H](c3ccccn3)Nc3cccc(n3)S(=O)(=O)NC(=O)c3ccc(-c4cccc(OCC5CCC5)n4)nc3N1C2` [Compound 313, (14S,17R)-8-[6-(cyclobutylmethoxy)pyridin-2-yl]-12,12-dimethyl-17-(pyridin-2-yl)-2λ^6-thia-3,9,11,18,23-pentaazatetracyclo[17.3.1.111,14.05,10]tetracosa-1(22),5,7,9,19(23),20-hexaene-2,2,4-trione], for which the “Corrector Assay A % activity” value is on record as “+++ (+++ is >60%)” and the EC50 was less than 1000 nM.
For `CC(C)(C)c1ccc2c(n1)N1C[C@@H](CCC(c3ccc(N4CCOCC4)cn3)Nc3cccc(n3)S(=O)(=O)NC2=O)CC1(C)C` (stereo partly drawn) [Compound 198], the “Corrector Assay A % activity” value is “+++ (+++ is >60%)” and the EC50 was less than 1000 nM.
Take `CC1(C)C[C@@H]2CC[C@H](c3ccccn3)Nc3cccc(n3)S(=O)(=O)NC(=O)c3ccc(C#N)nc3N1C2` [Compound 193, (14S,17R)-12,12-dimethyl-2,2,4-trioxo-17-(pyridin-2-yl)-2λ^6-thia-3,9,11,18,23-pentaazatetracyclo[17.3.1.111,14.05,10]tetracosa-1(22),5,7,9,19(23),20-hexaene-8-carbonitrile]: the “Corrector Assay A % activity” value was “+++ (+++ is >60%)” and the EC50 was greater than 3000 nM.
On the same counts, the results for `CC(C)(C)c1ccc2c(n1)N1C[C@@H](CCC(C3CCNCC3)Nc3cccc(n3)S(=O)(=O)NC2=O)CC1(C)C` (single isomer, unassigned) [Compound 249] are “++ (++ is 30-60%)” and greater than 3000 nM.
For `CC(C)(C)c1ccc2c(n1)N1C[C@@H](CC[C@H](c3ccc(C(F)(F)F)cn3)Nc3cccc(n3)S(=O)(=O)NC2=O)CC1(C)C` (single isomer, unassigned) [Compound 80] the same measures were “++ (++ is 30-60%)” and less than 1000 nM.
For `CC(C)=Cc1ccc(C2CC[C@@H]3CN(c4nc(C(C)(C)C)ccc4C(=O)NS(=O)(=O)c4cccc(n4)N2)C(C)(C)C3)nc1` (stereo partly drawn) [Compound 183, (14S)-8-tert-Butyl-12,12-dimethyl-17-[5-(2-methylprop-1-en-1-yl)pyridin-2-yl]-2λ^6-thia-3,9,11,18,23-pentaazatetracyclo[17.3.1.111,14.05,10]tetracosa-1(23),5(10),6,8,19,21-hexaene-2,2,4-trione] the same measures were “++ (++ is 30-60%)” and less than 1000 nM.
On to `COC[C@@H]1CC[C@@H]2CN(c3nc(C(C)(C)C)ccc3C(=O)NS(=O)(=O)c3cccc(n3)N1)C(C)(C)C2` (single isomer, unassigned) [Compound 276], for which the “Corrector Assay A % activity” value was “++ (++ is 30-60%)” and the EC50 was less than 1000 nM.
For the compound `C[C@@H](O)C[C@@H]1CC[C@@H]2CN(c3nc(C(C)(C)C)ccc3C(=O)NS(=O)(=O)c3cccc(n3)N1)C(C)(C)C2` (single isomer, unassigned) [Compound 28], the “Corrector Assay A % activity” value is given as “+++ (+++ is >60%)” and the EC50 is less than 1000 nM.
On the same counts, the results for `CC(C)(C)c1ccc2c(n1)N1C[C@@H](CCC(c3ccc(C4COC4)cn3)Nc3cccc(n3)S(=O)(=O)NC2=O)CC1(C)C` (stereo partly drawn) [Compound 29, (14S)-8-tert-butyl-12,12-dimethyl-17-[5-(oxetan-3-yl)pyridin-2-yl]-2λ^6-thia-3,9,11,18,23-pentaazatetracyclo[17.3.1.111,14.05,10]tetracosa-1(23),5(10),6,8,19,21-hexaene-2,2,4-trione] are “+++ (+++ is >60%)” and less than 1000 nM.
On the same counts, the results for `COc1cccc(-c2ccc3c(n2)N2C[C@@H](CC[C@@H](c4ccccn4)Nc4cccc(n4)S(=O)(=O)NC3=O)CC2(C)C)n1` [Compound 338] are “+++ (+++ is >60%)” and less than 1000 nM.
On the same counts, the results for `CC(C)CC#Cc1ccc2c(n1)N1C[C@@H](CC[C@@H](c3ccccn3)Nc3cccc(n3)S(=O)(=O)NC2=O)CC1(C)C` [Compound 158] are “++ (++ is 30-60%)” and less than 1000 nM.

Values taken from US20220313698A1, “MODULATORS OF CYSTIC FIBROSIS TRANSMEMBRANE CONDUCTANCE REGULATOR” (Vertex Pharmaceuticals Incorporated, priority 2019, published 2022).
